Measurements: patent US8586552B2, “4,6-substituted 2,5-dideoxystreptamine aminoglycoside antibiotics” (SelectX Pharmaceuticals, Inc., priority 2012, dated 2013)
In brackets after ≈: the same amount, converted by molar mass.

Key:
[1] = tested on: Pseudomonas aeruginosa PR2 (clinical isolate with intermediate aminoglycoside resistance); assay: MIC against Pseudomonas aeruginosa clinical isolate PR2; assay type: cell-based; conditions: Pseudomonas aeruginosa resistant strain PR2
[2] = tested on: Acinetobacter baumannii AB2; assay: MIC against Acinetobacter baumannii clinical isolate AB2; assay type: cell-based
From the text: Acinetobacter baumannii is another clinically important and very challenging gram negative pathogen. Members of the Acinetobacter genus, including baumannii, have a remarkable ability to upregulate and acquire resistance determinants. Coupled with its ability to survive for prolonged periods in a hospital environment, A. baumannii is an emerging threat for healthcare institutions globally. We acquired clinical isolates of Acinetobacter baumannii and used this panel to test compounds for anti-Acinetobacter activity. We first tested reference AGs against our panel of Aba strains.

[3] = tested on: fifty resistant contemporary clinical isolates of Acinetobacter baumannii; assay: MIC90 against panel of resistant clinical isolates of Acinetobacter baumannii; assay type: cell-based
From the text: As in the case of Pseudomonas aeruginosa and Klebsiella pneumoniae, we considered whether the SAR observed against select Acinetobacter baumannii strains 1, 2 or 3 was indicative of general potency. […] Using this stringent Acinetobacter baumannii panel, we tested a subset of compounds of the invention.

[4] = tested on: P. aeruginosa 6294 MLP-3; assay: Rat neutropenic thigh model; assay type: in vivo
Method: The compound identified as SXP 2523 was selected for further testing in vivo. Twenty male Sprague Dawley rats were pre-treated with cyclophosphamide to render them neutropenic on day −4 and day −1 with 100 mg/kg and 75 mg/kg respectively. Rats were infected with P. aeruginosa 6294 MLP-3, via injection into the right thigh muscle of 0.1 mL per rat. Two hours post infection rats were treated intravenously with either SXP-2523 or amikacin in a total dose of 10 or 60 mg/kg, respectively. The test article and control agent were delivered at 2, 4, and 6 hours post infection. Five rats were treated with each drug concentration. One group of five rats was euthanized at initiation of treatment and thigh CFUs were processed (T=Rx). Twenty-four hours post infection rats were euthanized by CO2 inhalation. The right thigh muscles of the rats were aseptically removed, weighed, homogenized, serially diluted, and plated on MacConkey medium. The plates were incubated overnight at 37° C. in 5% CO2. CFU per gram of thigh was calculated by enumerating the plated colonies then adjusting for serial dilutions and the weight of the thigh. The following table 7 summarizes the results Table 6: […]

[5] = Log CFU/thigh, total dose 10 mg/kg SXP-2523 or 60 mg/kg amikacin iv

Structure (SMILES): NCCCNCC1OC(OC2C(NC(=O)C(O)CCN)CC(N)C(OC3OC(CN)C(O)CC3N)C2F)C(O)C(N)C1O (stereo not shown) [SXP 2523]
- MIC PR2 [1]: 0.5 µg/mL (≈ 0.798 µM)
- MIC AB2 [2]: 1 µg/mL (≈ 1.6 µM)
- MIC90 Acinetobacter baumannii [3]: 4 µg/mL (≈ 6.38 µM)
- Change from 24 hr. control [4, 5]: −0.71
- Change from T = Rx controls [4, 5]: 2.37
- Log CFU/thigh ([4]; neutropenic male Sprague Dawley rats, iv at 2, 4, 6 h post infection, total dose 10 mg/kg SXP-2523 or 60 mg/kg amikacin, 24 h post infection): 6.55 Log CFU/thigh
- efficacy against P. aeruginosa in animal model ([4]; rat neutropenic thigh model, total dose 10 mg/kg iv): effective against P. aeruginosa
